Earlier results as cited in patent US7541158B2, “Taste receptors of the T1R family from domestic dog” (Monell Chemical Senses Center, priority 2004, dated 2009).

Experiments:
dog = conditions: neurophysiological studies; mono- and disaccharides and sweeteners
dog taste nerve fibers = conditions: for response of dog taste nerve fibers that respond to sucrose: sucrose-responsive fibers

Structure (SMILES)	taste response activity in the dog (dog)	taste quality perceived by dog (domestic dog)	response of dog taste nerve fibers fired by saccharin (dog taste nerve fibers; saccharin-responsive fibers)	response of dog taste nerve fibers that respond to sucrose (dog taste nerve fibers)	behavioral preference (domestic dog; behavior said to be congenital)
O=C(CO)[C@@H](O)[C@H](O)[C@H](O)CO [D-fructose]	Particularly active	–	–	–	–
O=C1NS(=O)(=O)c2ccccc21 [saccharin]	–	bitter	fired	no response	–
OC[C@H]1O[C@@](CO)(O[C@H]2O[C@H](CO)[C@@H](O)[C@H](O)[C@H]2O)[C@@H](O)[C@@H]1O [sucrose]	Particularly active	–	–	responded	shows a preference
OC[C@H]1O[C@](O)(CO)[C@@H](O)[C@@H]1O [β-D-fructose]	Particularly active	–	–	–	–
